Paper PMC9235362 (Journal of medicinal chemistry, 2021)

Experiments:
human 5-HT1ARs [1] = target: T1, human 5-HT1ARs (Homo sapiens, UniProt P08908); test: In vitro 5-HT1A receptor cAMP signaling; assay type: cell-based; conditions: for 5-HT1A E/Imax: Emax is the percent maximum serotonin, agonist, response, value (SEM), N.A. = no activation or inactivation up to 30 μM
T1 sequence (P08908 1-422): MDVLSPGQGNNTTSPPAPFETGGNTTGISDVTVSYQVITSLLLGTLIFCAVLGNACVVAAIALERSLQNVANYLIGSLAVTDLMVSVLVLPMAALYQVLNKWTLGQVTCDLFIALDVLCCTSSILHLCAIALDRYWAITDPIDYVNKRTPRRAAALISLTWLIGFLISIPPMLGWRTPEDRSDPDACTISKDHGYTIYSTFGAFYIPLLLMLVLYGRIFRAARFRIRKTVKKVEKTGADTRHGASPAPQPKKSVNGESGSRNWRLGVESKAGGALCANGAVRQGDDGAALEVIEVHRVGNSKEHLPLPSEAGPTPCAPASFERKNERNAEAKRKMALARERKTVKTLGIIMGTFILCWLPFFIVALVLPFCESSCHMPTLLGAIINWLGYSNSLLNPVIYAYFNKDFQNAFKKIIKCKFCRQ

human 5-HT2B receptors [2] = target: T2, human 5-HT2B receptors (Homo sapiens, UniProt P41595); test: 5-HT2B receptor phosphoinositide hydrolysis; assay type: cell-based; conditions: for 5-HT2B E/Imax (Imax): Imax is the percent maximum SB 206553, inverse agonist, response, value (SEM), N.A. = no activation or inactivation up to 30 μM; for In vitro functional activity at human 5-HT2BRs: phosphoinositide hydrolysis assay
hMOR = conditions: BRET G protein activation assay, cited from earlier work
human 5-HT1ARs [3] = target: T1, human 5-HT1ARs; test: Radioligand competition binding at human 5-HT1ARs; conditions: present study versus 540 nM of ref 13
human 5-HT1A receptor = conditions: read-out: Ki human 5-HT1A receptor orthosteric binding site; cited from earlier work
5-HT3Rs = target: T3, 5-HT3Rs (Homo sapiens, UniProt P46098); test: Radioligand competition binding at 5-HT3Rs
T3 sequence (P46098 24-478): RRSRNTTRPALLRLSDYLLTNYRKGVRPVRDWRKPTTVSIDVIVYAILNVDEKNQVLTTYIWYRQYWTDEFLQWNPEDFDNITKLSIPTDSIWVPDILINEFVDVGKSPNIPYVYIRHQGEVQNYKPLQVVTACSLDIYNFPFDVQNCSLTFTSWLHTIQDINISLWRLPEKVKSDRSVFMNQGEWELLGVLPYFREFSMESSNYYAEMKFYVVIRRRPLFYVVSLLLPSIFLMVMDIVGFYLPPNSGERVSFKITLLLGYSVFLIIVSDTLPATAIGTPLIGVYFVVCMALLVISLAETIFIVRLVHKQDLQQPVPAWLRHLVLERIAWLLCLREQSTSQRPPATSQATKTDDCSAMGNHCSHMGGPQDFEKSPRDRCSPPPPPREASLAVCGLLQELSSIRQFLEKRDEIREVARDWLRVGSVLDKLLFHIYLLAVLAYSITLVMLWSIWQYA

human 5-HT2B receptors [4] = target: T2, human 5-HT2B receptors; assay type: binding; conditions: 100 nM alkaloid; [125I](±)DOI; CHO-K1 cells
adrenergic α1D receptors = conditions: read-out: Ki adrenergic α1D receptors; cited from earlier work
5-HT1A receptors = conditions: cited from earlier work
[5] = i.v., male rats

T2 sequence (P41595 whole entry): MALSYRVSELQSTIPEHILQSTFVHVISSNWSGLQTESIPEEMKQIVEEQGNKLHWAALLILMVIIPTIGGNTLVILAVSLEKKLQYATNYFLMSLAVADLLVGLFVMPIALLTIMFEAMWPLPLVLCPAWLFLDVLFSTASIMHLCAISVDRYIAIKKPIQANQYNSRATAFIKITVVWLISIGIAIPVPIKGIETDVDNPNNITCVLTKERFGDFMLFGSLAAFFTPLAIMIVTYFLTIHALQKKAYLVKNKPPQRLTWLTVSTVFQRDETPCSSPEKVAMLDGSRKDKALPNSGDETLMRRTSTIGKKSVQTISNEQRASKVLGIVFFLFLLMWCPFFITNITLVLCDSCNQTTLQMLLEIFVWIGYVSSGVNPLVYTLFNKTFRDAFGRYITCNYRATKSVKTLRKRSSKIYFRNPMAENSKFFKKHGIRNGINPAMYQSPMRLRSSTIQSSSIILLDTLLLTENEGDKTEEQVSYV

## C=C[C@H]1CN2CCc3c([nH]c4cccc(O)c34)[C@@H]2C[C@@H]1/C(=C\OC)C(=O)OC [9-O-desmethylpaynantheine (gambireine), Methyl(E)-2-((2S,3R,12bS)-8-hydroxy-3-vinyl-1,2,3,4,6,7,12,12b-octahydroindolo[2,3-a]quinolizin-2-yl)-3-methoxyacrylate]
Human 5-HT1ARs [1]
  EC50: 865 nM
  5-HT1A E/Imax: 100 (0.08) %
Human 5-HT2B receptors [2]
  EC50: 2340 nM
  5-HT2B E/Imax (Imax): 38 (10.3) %

## CC[C@H]1CN2CCc3c([nH]c4cccc(OC)c34)[C@@H]2C[C@@H]1/C(=C\OC)C(=O)OC [speciogynine, Methyl(E)-2-((2S,3R,12bS)-3-ethyl-8-methoxy-1,2,3,4,6,7,12,12b-octahydroindolo[2,3-a]quinolizin-2-yl)-3-methoxyacrylate]
hMOR
  Functional activity at hMOR: low-potency, competitive antagonists
Human 5-HT2B receptors [2]
  EC50: 2020 nM
  5-HT2B E/Imax (Imax): 24.8 (6.9) %
  In vitro functional activity at human 5-HT2BRs: no agonist activity
Human 5-HT1ARs [3]
  Affinity for 5-HT1ARs relative to previously reported value: > 10 fold
Human 5-HT1A receptor
  Ki: 540 nM

## C=C[C@H]1CN2CCc3c([nH]c4cccc(OC)c34)[C@@H]2C[C@@H]1/C(=C\OC)C(=O)OC [paynantheine, Methyl(E)-3-methoxy-2-((2S,3R,12bS)-8-methoxy-3-vinyl-1,2,3,4,6,7,12,12b-octahydroindolo[2,3-a]quinolizin-2-yl)acrylate]
hMOR
  Functional activity at hMOR: low-potency, competitive antagonists
Human 5-HT2B receptors [2]
  In vitro functional activity at human 5-HT2BRs: no agonist activity
5-HT3Rs; 100 nM alkaloid
  Percent displacement of radioligand, 5-HT3: −9.8%
5-HT3Rs; 10,000 nM alkaloid
  Percent displacement of radioligand, 5-HT3: −0.8%

## Methyl(4S,4aR,13bS,14aS)-4-methyl-4a,5,7,8,13,13b,14,14a-octahydro-4H-indolo[2,3-a]pyrano[3,4-g]quinolizine-1-carboxylate [ajmalicine]
Human 5-HT2B receptors [4]
  Percent displacement of radioligand, 5-HT2B: 6.2%
5-HT3Rs; 100 nM alkaloid
  Percent displacement of radioligand, 5-HT3: −2.5%
5-HT3Rs; 10,000 nM alkaloid
  Percent displacement of radioligand, 5-HT3: 1.8%
Human 5-HT1A receptor
  Ki: 420 nM

## CC[C@@H]1CN2CCc3c([nH]c4cccc(O)c34)[C@@H]2C[C@@H]1/C(=C\OC)C(=O)OC [9-hydroxycorynantheidine]
Human 5-HT2B receptors [4]
  Percent displacement of radioligand, 5-HT2B: 5.2%
5-HT3Rs; 100 nM alkaloid
  Percent displacement of radioligand, 5-HT3: −1.3%
5-HT3Rs; 10,000 nM alkaloid
  Percent displacement of radioligand, 5-HT3: 7.3%

## CC[C@@H]1CN2CCc3c([nH]c4cccc(OC)c34)[C@H]2C[C@@H]1/C(=C\OC)C(=O)OC [speciociliatine]
hMOR
  Functional activity at hMOR: low-potency, competitive antagonists

## CC[C@@H]1CN2CCc3c([nH]c4ccccc34)[C@@H]2C[C@@H]1/C(=C\OC)C(=O)OC [corynantheidine]
Human 5-HT2B receptors [4]
  Percent displacement of radioligand, 5-HT2B: 14.8%
Adrenergic α1D receptors
  Ki: 41 nM
5-HT3Rs; 100 nM alkaloid
  Percent displacement of radioligand, 5-HT3: 6.2%
5-HT3Rs; 10,000 nM alkaloid
  Percent displacement of radioligand, 5-HT3: 6.8%

## C/C=C1/CN2CCc3c([nH]c4ccccc34)[C@@H]2C[C@@H]1/C(=C/OC)C(=O)OC [Geissoschizine methyl ether]
5-HT1A receptors
  Activity at 5-HT1A receptors: potent antagonist

## CC[C@@H]1CN2CCc3c([nH]c4cccc(OC)c34)[C@@H]2C[C@@H]1/C(=C\OC)C(=O)OC [mitragynine]
[5]
  Dose-normalized exposure (AUCinf/dose) relative to paynantheine: 3.6 fold
  Dose-normalized exposure (AUCinf/dose) relative to speciogynine: 1.7 fold

## NCCc1c[nH]c2ccc(O)cc12 [serotonin, reference compound]
Human 5-HT1ARs [1]
  5-HT1A E/Imax: 100%

## Cn1ccc2cc3c(cc21)CCN3C(=O)Nc1cccnc1 [SB 206553, reference compound]
Human 5-HT2B receptors [2]
  EC50: 15.3 nM
  5-HT2B E/Imax (Imax): 100%

## CC[C@H]1CN2CCc3c([nH]c4cccc(O)c34)[C@@H]2C[C@@H]1/C(=C\OC)C(=O)OC [9-O-desmethylspeciogynine (gambirine), Methyl(E)-2-((2S,3R,12bS)-3-ethyl-8-hydroxy-1,2,3,4,6,7,12,12b-octahydroindolo[2,3-a]quinolizin-2-yl)-3-methoxyacrylate]
Human 5-HT1ARs [1]
  EC50: 838 nM
  5-HT1A E/Imax: 99 (0.08) %
Human 5-HT2B receptors [2]
  EC50: 1470 nM
  5-HT2B E/Imax (Imax): 45 (14.3) %

## O=C1c2ccccc2S(=O)(=O)N1CCCCN1CCN(c2ncccn2)CC1 [ipsapirone, reference compound]
Human 5-HT1ARs [1]
  5-HT1A E/Imax: 82 (0.1) %
